Results from patent US20220089592A1, “IMIDAZO[1,2-A]PYRIDINYL DERIVATIVES AS IRAK4 INHIBITORS” (priority 2019, published 2022).

Molecular target: T1, IRAK4 (Homo sapiens, UniProt Q9NWZ3)
T1 sequence (Q9NWZ3 1-460): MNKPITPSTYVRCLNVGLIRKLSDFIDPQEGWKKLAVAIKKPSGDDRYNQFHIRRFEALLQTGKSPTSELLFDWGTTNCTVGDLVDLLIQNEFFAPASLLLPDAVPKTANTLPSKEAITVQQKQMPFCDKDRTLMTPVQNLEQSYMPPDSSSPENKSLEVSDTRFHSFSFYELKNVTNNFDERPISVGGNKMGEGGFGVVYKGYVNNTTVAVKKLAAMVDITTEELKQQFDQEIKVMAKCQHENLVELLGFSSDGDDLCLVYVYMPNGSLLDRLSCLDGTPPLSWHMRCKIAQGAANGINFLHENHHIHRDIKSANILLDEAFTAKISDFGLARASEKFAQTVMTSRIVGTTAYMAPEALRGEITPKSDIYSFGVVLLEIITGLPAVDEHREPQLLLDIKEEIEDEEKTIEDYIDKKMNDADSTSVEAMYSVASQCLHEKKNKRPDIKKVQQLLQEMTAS
Experiment: 2-hour 1 mM ATP IRAK4 Biochemical assay (as above, but with 100 pM IRAK4 and 1 mM ATP)
Settings: IRAK4 MSD BIOCHEMICAL (1 mM ATP) IC50 (μM), 100 pM IRAK4, 2 hours
Outline: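 MSD electrochemiluminescence read-out: biotinylated peptide product bound to streptavidin plates, probed with anti-P-Thr rabbit antibody and Sulfo-Tag goat anti-rabbit. Kinase reaction used 1 mM ATP and 100 pM IRAK4 over 2 hours before EDTA quench.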

| IC50 [µM] | Compound |
| --- | --- |
| 0.092 | Cn1ccc(C(=O)Nc2cc(OC(F)F)c3nc(C45COC(C)(C4)C5)cn3c2)n1 [Example 423, N-(8-(difluoromethoxy)-2-(1-methyl-2-oxabicyclo[2.1.1]hexan-4-yl)imidazo[1,2-a]pyridin-6-yl)-1-methyl-1H-pyrazole-3-carboxamide 2,2,2-trifluoroacetate] |
| 0.017 | COc1ccccc1C(=O)Nc1cn2cc(C34COC(C)(C3)C4)nc2c(F)c1OC(C)C [Example 424, N-(8-fluoro-7-isopropoxy-2-(1-methyl-2-oxabicyclo[2.1.1]hexan-4-yl)imidazo[1,2-a]pyridin-6-yl)-2-methoxybenzamide 2,2,2-trifluoroacetate] |
| 0.003 | Cc1cccc(C(=O)Nc2cn3cc(C45COC(C)(C4)C5)nc3c(F)c2OC(C)C)c1F [Example 425, 2-fluoro-N-(8-fluoro-7-isopropoxy-2-(1-methyl-2-oxabicyclo[2.1.1]hexan-4-yl)imidazo[1,2-a]pyridin-6-yl)-3-methylbenzamide 2,2,2-trifluoroacetate] |
| 0.002 | COc1cccc(C(=O)Nc2cn3cc(C45COC(C)(C4)C5)nc3c(F)c2OC(C)C)n1 [Example 426, N-(8-fluoro-7-isopropoxy-2-(1-methyl-2-oxabicyclo[2.1.1]hexan-4-yl)imidazo[1,2-a]pyridin-6-yl)-6-methoxypicolinamide] |
| 0.003 | COc1c(NC(=O)c2cccc(C(F)F)n2)cn2cc(C3CCOCC3)nc2c1C [Example 427, 6-(difluoromethyl)-N-(7-methoxy-8-methyl-2-(tetrahydro-2H-pyran-4-yl)imidazo[1,2-a]pyridin-6-yl)picolinamide] |
| 0.01 | COc1ncccc1C(=O)Nc1cn2cc(C34COC(C)(C3)C4)nc2c(F)c1OC(C)C [Example 428, N-(8-fluoro-7-isopropoxy-2-(1-methyl-2-oxabicyclo[2.1.1]hexan-4-yl)imidazo[1,2-a]pyridin-6-yl)-2-methoxynicotinamide] |
| 0.006 | CC(C)Oc1c(NC(=O)c2cccc(OCC(F)F)n2)cn2cc(C34COC(C)(C3)C4)nc2c1F [Example 429, 6-(2,2-difluoroethoxy)-N-(8-fluoro-7-isopropoxy-2-(1-methyl-2-oxabicyclo[2.1.1]hexan-4-yl)imidazo[1,2-a]pyridin-6-yl)picolinamide 2,2,2-trifluoroacetate] |
| 0.008 | CC(C)Oc1c(NC(=O)c2coc(C(F)F)n2)cn2cc(C34COC(C)(C3)C4)nc2c1F [Example 430, 2-(difluoromethyl)-N-(8-fluoro-7-isopropoxy-2-(1-methyl-2-oxabicyclo[2.1.1]hexan-4-yl)imidazo[1,2-a]pyridin-6-yl)oxazole-4-carboxamide 2,2,2-trifluoroacetate] |
| 0.001 | CC(C)Oc1c(NC(=O)c2coc(C3CC3)n2)cn2cc(C34COC(C)(C3)C4)nc2c1F [Example 431, 2-cyclopropyl-N-(8-fluoro-7-isopropoxy-2-(1-methyl-2-oxabicyclo[2.1.1]hexan-4-yl)imidazo[1,2-a]pyridin-6-yl)oxazole-4-carboxamide] |
| 0.005 | CC(C)Oc1c(NC(=O)c2ccn(C)n2)cn2cc(C34COC(C)(C3)C4)nc2c1F [Example 432, N-(8-fluoro-7-isopropoxy-2-(1-methyl-2-oxabicyclo[2.1.1]hexan-4-yl)imidazo[1,2-a]pyridin-6-yl)-1-methyl-1H-pyrazole-3-carboxamide 2,2,2-trifluoroacetate] |
| 0.013 | CC(C)Oc1c(NC(=O)c2ccnc3ccnn23)cn2cc(C34COC(C)(C3)C4)nc2c1F [Example 433, N-(8-fluoro-7-isopropoxy-2-(1-methyl-2-oxabicyclo[2.1.1]hexan-4-yl)imidazo[1,2-a]pyridin-6-yl)pyrazolo[1,5-a]pyrimidine-7-carboxamide] |
| 0.004 | CC(C)Oc1c(NC(=O)c2cccc3ncnn23)cn2cc(C34COC(C)(C3)C4)nc2c1F [Example 434, N-(8-fluoro-7-isopropoxy-2-(1-methyl-2-oxabicyclo[2.1.1]hexan-4-yl)imidazo[1,2-a]pyridin-6-yl)-[1,2,4]triazolo[1,5-a]pyridine-5-carboxamide] |
| 0.012 | COc1ncccc1C(=O)Nc1cn2cc(C34CCC(C)(C3)OC4)nc2c(F)c1OC(C)C (centres unmarked) [Example 435, N-(8-fluoro-7-isopropoxy-2-(1-methyl-2-oxabicyclo[2.2.1]heptan-4-yl)imidazo[1,2-a]pyridin-6-yl)-2-methoxynicotinamide 2,2,2-trifluoroacetate] |
| 0.004 | Cn1ccc(C(=O)Nc2cn3cc(C45COC(C)(C4)C5)nc3c(F)c2OC2CCCC2)n1 [Example 437, N-(7-(cyclopentyloxy)-8-fluoro-2-(1-methyl-2-oxabicyclo[2.1.1]hexan-4-yl)imidazo[1,2-a]pyridin-6-yl)-1-methyl-1H-pyrazole-3-carboxamide 2,2,2-trifluoroacetate] |
| 0.007 | CCc1cccc(C(=O)Nc2cn3cc(C4CCOCC4)nc3cn2)n1 [Example 438, 6-ethyl-N-(2-(tetrahydro-2H-pyran-4-yl)imidazo[1,2-a]pyrazin-6-yl)picolinamide] |
| 0.063 | COc1nc(NC(=O)c2coc(C(F)F)n2)cn2cc(C34COC(C)(C3)C4)nc12 [Example 439, 2-(difluoromethyl)-N-(8-methoxy-2-(1-methyl-2-oxabicyclo[2.1.1]hexan-4-yl)imidazo[1,2-a]pyrazin-6-yl)oxazole-4-carboxamide] |
| 0.047 | CCOc1nc(C(=O)Nc2cn3cc(C45COC(C)(C4)C5)nc3c(OC)n2)co1 [Example 440, 2-ethoxy-N-(8-methoxy-2-(1-methyl-2-oxabicyclo[2.1.1]hexan-4-yl)imidazo[1,2-a]pyrazin-6-yl)oxazole-4-carboxamide] |
| 0.118 | COc1nc(NC(=O)c2ccn(C)n2)cn2cc(C34COC(C)(C3)C4)nc12 [Example 441, N-(8-methoxy-2-(1-methyl-2-oxabicyclo[2.1.1]hexan-4-yl)imidazo[1,2-a]pyrazin-6-yl)-1-methyl-1H-pyrazole-3-carboxamide] |
| 0.024 | COc1nc(NC(=O)c2cccc3ccnn23)cn2cc(C34COC(C)(C3)C4)nc12 [Example 442, N-(8-methoxy-2-(1-methyl-2-oxabicyclo[2.1.1]hexan-4-yl)imidazo[1,2-a]pyrazin-6-yl)pyrazolo[1,5-a]pyridine-7-carboxamide] |
| 0.023 | COc1ccccc1C(=O)Nc1cn2cc(C34COC(C)(C3)C4)nc2c(OC)n1 [Example 443, 2-methoxy-N-(8-methoxy-2-(1-methyl-2-oxabicyclo[2.1.1]hexan-4-yl)imidazo[1,2-a]pyrazin-6-yl)benzamide] |
| 0.039 | COc1nc(NC(=O)c2cccc(C)c2F)cn2cc(C34COC(C)(C3)C4)nc12 [Example 444, 2-fluoro-N-(8-methoxy-2-(1-methyl-2-oxabicyclo[2.1.1]hexan-4-yl)imidazo[1,2-a]pyrazin-6-yl)-3-methylbenzamide] |
| 0.012 | COc1nc(NC(=O)c2cccc3c2OCC3)cn2cc(C34COC(C)(C3)C4)nc12 [Example 445, N-(8-methoxy-2-(1-methyl-2-oxabicyclo[2.1.1]hexan-4-yl)imidazo[1,2-a]pyrazin-6-yl)-2,3-dihydrobenzofuran-7-carboxamide 2,2,2-trifluoroacetate] |
| 0.008 | COc1nc(NC(=O)c2cccc3c2OCC3(F)F)cn2cc(C34COC(C)(C3)C4)nc12 [Example 446, 3,3-difluoro-N-(8-methoxy-2-(1-methyl-2-oxabicyclo[2.1.1]hexan-4-yl)imidazo[1,2-a]pyrazin-6-yl)-2,3-dihydrobenzofuran-7-carboxamide] |
| 0.015 | COc1ncccc1C(=O)Nc1cn2cc(C34COC(C)(C3)C4)nc2c(OC)n1 [Example 447, 2-methoxy-N-(8-methoxy-2-(1-methyl-2-oxabicyclo[2.1.1]hexan-4-yl)imidazo[1,2-a]pyrazin-6-yl)nicotinamide 2,2,2-trifluoroacetate] |
| 0.023 | COc1cccc(C(=O)Nc2cn3cc(C45COC(C)(C4)C5)nc3c(OC)n2)n1 [Example 448, 6-methoxy-N-(8-methoxy-2-(1-methyl-2-oxabicyclo[2.1.1]hexan-4-yl)imidazo[1,2-a]pyrazin-6-yl)picolinamide 2,2,2-trifluoroacetate] |
| 0.064 | COc1nc(NC(=O)c2cccc(C(F)(F)F)n2)cn2cc(C34COC(C)(C3)C4)nc12 [Example 449, N-(8-methoxy-2-(1-methyl-2-oxabicyclo[2.1.1]hexan-4-yl)imidazo[1,2-a]pyrazin-6-yl)-6-(trifluoromethyl)picolinamide 2,2,2-trifluoroacetate] |
| 0.014 | COc1nc(NC(=O)c2cccc3c2OCC3(F)F)cn2cc(C3CCOCC3)nc12 [Example 454, 3,3-difluoro-N-(8-methoxy-2-(tetrahydro-2H-pyran-4-yl)imidazo[1,2-a]pyrazin-6-yl)-2,3-dihydrobenzofuran-7-carboxamide] |
| 0.043 | COc1nc(NC(=O)c2cccc(C)n2)cn2cc(C3CCOCC3)nc12 [Example 455, N-(8-methoxy-2-(tetrahydro-2H-pyran-4-yl)imidazo[1,2-a]pyrazin-6-yl)-6-methylpicolinamide] |

| Compound | IC50 [µM] |
| --- | --- |
| COc1ncccc1C(=O)Nc1cn2cc(C34COC(C)(C3)C4)nc2c(F)c1OC1CCC1 [Example 436, N-(7-cyclobutoxy-8-fluoro-2-(1-methyl-2-oxabicyclo[2.1.1]hexan-4-yl)imidazo[1,2-a]pyridin-6-yl)-2-methoxynicotinamide 2,2,2-trifluoroacetate] | 0.029 |
